Assay results from patent US11351142B2, “Composition and method for treating neuronal ceroid lipofuscinosis” (Rush University Medical Center, priority 2012, dated 2022).

Experiments:
Cln2 mRNA = Cln2 mRNA expression by semi-quantitative RT-PCR and real-time PCR in mouse primary astrocytes; type: cell-based
Procedure: Astroglia were isolated from mixed glial cultures as described (17,18) according to the procedure of Giulian and Baker (19). Briefly, on day 9, the mixed glial cultures were washed three times with Dulbecco's modified Eagle's medium/F-12 and subjected to shaking at 240 rpm for 2 h at 37° C. on a rotary shaker to remove microglia. After 2 days, the shaking was repeated for 24 h for the removal of oligodendroglia and to ensure the complete removal of all nonastroglial cells. The attached cells were seeded onto new plates for further studies. Total RNA was isolated from mouse primary astrocytes and human primary astrocytes using RNA-Easy Qiagen (Valencia, Calif.) kit following manufactures protocol. Semi-quantitative RT-PCR was carried out as described earlier (24) using oligo (dT) 12-18 as primer and moloney murine leukemia virus reverse transcriptase (MMLV-RT, Invitrogen) in a 20 μl reaction mixture. The resulting cDNA was appropriately amplified using Promega Master Mix (Madison, Wis.) and the following primers (Invitrogen) for murine genes: The mRNA quantification was performed using the ABI-Prism7700 sequence detection system (Applied Biosystems, Foster City, Calif.) using iTaq™ Fast Supermix With ROX (Bio-Rad, Hercules, Calif.) and the following 6-FAM/ZEN/IBFQ-labeled primers for murine genes: Cln2 and Gapdh (Integrated DNA Technologies Coralville, Iowa). The mRNA expression of the targeted genes was normalized to the level of Gapdh mRNA and data was processed by the ABI Sequence Detection System 1.6 software.

TPP1 = assay: Western blot and densitometric analysis of TPP1 in mouse primary astrocytes; type: cell-based
Procedure: Astroglia were isolated from mixed glial cultures as described (17,18) according to the procedure of Giulian and Baker (19). Briefly, on day 9, the mixed glial cultures were washed three times with Dulbecco's modified Eagle's medium/F-12 and subjected to shaking at 240 rpm for 2 h at 37° C. on a rotary shaker to remove microglia. After 2 days, the shaking was repeated for 24 h for the removal of oligodendroglia and to ensure the complete removal of all nonastroglial cells. The attached cells were seeded onto new plates for further studies.
Western blotting was conducted as described earlier (27,28) with modifications. Briefly, cells were scraped in double-distilled H20 and sodium dodecyl sulfate (SDS), electrophoresed on NuPAGE® Novex® 4-12% Bis-Tris gels (Invitrogen) and proteins transferred onto a nitrocellulose membrane (Bio-Rad) using the Thermo-Pierce Fast Semi-Dry Blotter. The membrane was then washed for 15 min in TBS plus Tween 20 (TBST) and blocked for 1 hr in TBST containing BSA. Next, membranes were incubated overnight at 4° C. under shaking conditions with the following 1° antibodies; TPP1 (1:250, Santa Cruz), β-actin (1:800; Abcam, Cambridge, Mass. The next day, membranes were washed in TBST for 1 hr, incubated in 2° antibodies against 1° antibody hosts (all 1:10,000; Jackson ImmunoResearch) for 1 hr at room temperature, washed for one more hour and visualized under the Odyssey® Infrared Imaging System (Li-COR, Lincoln, Nebr.).
Protein blots were analyzed using ImageJ (NIH, Bethesda, Md.) and bands were normalized to their respective β-actin loading controls. Data are representative of the average fold change with respect to control for three independent experiments.

CC1=C(/C=C/C(C)=C/C=C/C(C)=C/C(=O)O)C(C)(C)CCC1 [RA, all-trans retinoic acid]
Cln2 level (quantitative real time PCR) (Cln2 mRNA; astrocytes with RXRα knockdown (RXRα siRNA), gemfibrozil (10 μM), RA (0.5 μM) alone and in combination): almost unresponsive | increase in Cln2 mRNA levels (quantitative real time PCR) (Cln2 mRNA; mouse primary astrocytes, 24 hrs, RA 0.5 μM, gemfibrozil 10 μM, combination 10 μM gemfibrozil and 0.5 μM RA): about 3.5 fold | induction of TPP1 (immunoblot) (TPP1; PPARα−/− astrocytes, RA (0.5 μM) and combination of gemfibrozil (10 μM) and RA (0.5 μM)): neither RA alone nor the combination could induce TPP1 | TPP1 levels (Western blot, densitometric analysis) (TPP1; RXRα siRNA transfected astrocytes, gemfibrozil (10 μM), RA (0.5 μM) alone and in combination): almost no enhancement
